Data: article PMC4827351 (Chemical Science, 2015)
Entries after “also recorded” stand apart in the source; their conditions may differ.

Columns and labels:
[1] = system: TPCK-treated trypsin (Worthington); test: 0.01 mg mL^–1 trypsin (1 : 100 trypsin : proHD6 (w/w)) in 100 mM Tris–HCl, 20 mM CaCl2, pH 8.0; conditions: room temperature, up to 120 min
[2] = intestinal luminal aspirates obtained by endoscopy (ileal fluid); conditions: human
[3] = biological target: the molecule itself; test: AUC; sedimentation equilibrium; proHD6 30, 60 and 120 μM in 10 mM sodium phosphate pH 7.4, 30 000, 36 000 and 42 000 rpm, 20 °C, global fit with SEDPHAT; monomer to dimer

In the case of AFTCHCRRSCYSTEYSYGTCTVMGINHRFCCL, the not cleaved [1] is reported as “resistant to trypsin-catalyzed degradation”.

For “EPLQAEDDPLQAKAYEADAQEQRGANDQDFAVSFAEDASSSLRALGSTRAFTCHCRRSCYSTEYSYGTCTVMGINHRFCCL”, the cleaved bond [2] was “Arg68-Ala69”, the cleaved bond [1] was “Arg68-Ala69, 1 min” and the fragment found [1] was “EPLQAEDDPLQAK, 1 min; also recorded: GANDQDFAVSFAEDASSSLR, 1 min”.

B1: proHD6 (81-residue propeptide of human α-defensin 6) (natural protein, UniProt Q01524 20-100, looked up)
chain: EPLQAEDDPLQAKAYEADAQEQRGANDQDFAVSFAEDASSSLRALGSTRAFTCHCRRSCYSTEYSYGTCTVMGINHRFCCL
notes: N-terminus EPLQ; Oxidatively folded regioisomer with the three native disulfide bonds (Cys4-Cys31, Cys6-Cys20, Cys10-Cys30, numbers count on mature HD6); Ulp1 cleavage leaves the native 81-residue peptide; also called HD6 propeptide; native proHD6; source: E. coli BL21(DE3) as His6-SUMO-proHD6, purified (Ni-NTA), Ulp1 digestion, reduction, oxidative folding, preparative HPLC; not shown: His6, …
In the case of B1, the “stoichiometry N” value [3] is reported as 2.
